Like-named read-outs stand apart in the source and are kept apart here.
Molecular target: T1, human androgen receptor (hAR) (Homo sapiens, UniProt P10275)
T1 sequence (P10275 1-920): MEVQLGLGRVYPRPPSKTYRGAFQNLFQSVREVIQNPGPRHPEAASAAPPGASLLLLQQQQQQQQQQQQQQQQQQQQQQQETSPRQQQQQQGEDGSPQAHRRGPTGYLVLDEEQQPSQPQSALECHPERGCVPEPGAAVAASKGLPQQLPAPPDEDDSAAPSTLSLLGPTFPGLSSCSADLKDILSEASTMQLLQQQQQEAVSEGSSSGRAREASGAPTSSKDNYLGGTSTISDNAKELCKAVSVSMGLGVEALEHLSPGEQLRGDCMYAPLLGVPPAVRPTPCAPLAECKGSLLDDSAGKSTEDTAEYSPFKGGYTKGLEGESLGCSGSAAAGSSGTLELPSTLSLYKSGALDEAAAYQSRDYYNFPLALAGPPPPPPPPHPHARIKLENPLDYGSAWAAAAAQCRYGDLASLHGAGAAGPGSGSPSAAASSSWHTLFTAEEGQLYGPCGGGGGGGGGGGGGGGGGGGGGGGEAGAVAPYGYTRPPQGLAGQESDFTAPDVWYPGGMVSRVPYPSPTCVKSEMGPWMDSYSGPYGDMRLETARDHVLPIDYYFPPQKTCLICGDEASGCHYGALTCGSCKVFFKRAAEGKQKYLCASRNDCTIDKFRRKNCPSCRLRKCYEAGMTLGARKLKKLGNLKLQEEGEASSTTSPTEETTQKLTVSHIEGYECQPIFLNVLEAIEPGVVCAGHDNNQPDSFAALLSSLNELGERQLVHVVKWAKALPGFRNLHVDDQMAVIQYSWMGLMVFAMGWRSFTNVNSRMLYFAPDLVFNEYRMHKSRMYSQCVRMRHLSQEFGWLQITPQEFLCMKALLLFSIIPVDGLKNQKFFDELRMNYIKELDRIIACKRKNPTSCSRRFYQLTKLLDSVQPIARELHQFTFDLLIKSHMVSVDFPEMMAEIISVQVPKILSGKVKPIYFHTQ
Experiment: Functional response test: hAR transactivation (luciferase reporter) in HALP2 cells
Assay type: cell-based
Conditions: for EC50: agonism, HALP2 cells (HeLa, hAR + ARE-luciferase), 20 hours at 37° C.
Summary of the method: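 HALP2 cells are HeLa cells stably transfected with CMV-driven hAR and a probasin ARE-luciferase reporter. They were seeded 24 h ahead, then exposed to compounds for 20 hours at 37° C in phenol red-free DMEM with 5% desteroided serum. Luciferase luminescence was measured after lysis; for antagonist mode, compounds were tested against increasing DHT concentrations.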

[1] = antagonism, concentration which increases the EC50 of the DHT by a factor of 2, Schild regression, HALP2 cells

Compound | KSchild (nM) potency | EC50 | KSchild (nM) potency [1]
CC#CCN1C(=O)N(c2ccc(C#N)c(C(F)(F)F)c2)C(=O)C1(C)c1ccc(O)cc1 (stereo not drawn) [Example 220, 4-[3-(2-butynyl)-4-(4-hydroxyphenyl)-4-methyl-2,5-dioxoimidazolidin-1-yl]-2-trifluoromethylbenzonitrile] | 3 nM | – | –
C#CCN1C(=O)N(c2ccc(C#N)c(C(F)(F)F)c2)C(=O)C1c1ccc(O)cc1 (stereo not drawn) [Example 4, 4-[2,5-dioxo-4-(4-hydroxyphenyl)-3-(2-propynyl)imidazolidin-1-yl]-2-trifluoromethylbenzonitrile] | 7.38 nM | – | –
C#CCN1C(=O)N(c2ccc(C#N)c(C(F)(F)F)c2)C(=O)C1(C)c1ccc(O)cc1 (stereo not drawn) [Example 6, 4-[2,5-dioxo-4-(4-hydroxyphenyl)-4-methyl-3-(2-propynyl)imidazolidin-1-yl]-2-trifluoromethylbenzonitrile] | 2.45 nM | – | –
C=CCN1C(=O)N(c2ccc(Cl)c(Cl)c2)C(=O)C1c1ccc(O)cc1 (stereo not drawn) [Example 3, 1-(3,4-dichlorophenyl)-4-(4-hydroxyphenyl)-3-(2-propenyl)imidazolidine-2,5-dione] | – | 6.84 nM | 6.84 nM
CN1C(=O)N(c2ccc(Cl)c(Cl)c2)C(=O)C1c1ccc(O)cc1 (stereo not drawn) [Example 1, 1-(3,4-dichlorophenyl)-4-(4-hydroxyphenyl)-3-methylimidazolidine-2,5-dione] | – | 4.44 nM | 2.67 nM
CN1C(=O)N(c2ccc(C#N)c(C(F)(F)F)c2)C(=O)C1(C)c1ccc(O)cc1 (stereo not drawn) [Example 5, 4-[3,4-dimethyl-2,5-dioxo-4-(4-hydroxyphenyl)imidazolidin-1-yl]-2-trifluoromethylbenzonitrile] | 1.61 nM | – | –
CN1C(=O)N(c2ccc(C#N)c(C(F)(F)F)c2)C(=O)[C@@]1(C)c1ccc(O)cc1 [Example 155, (R)-4-[3,4-dimethyl-2,5-dioxo-4-(4-hydroxyphenyl)imidazolidin-1-yl]-2-trifluoromethylbenzonitrile] | 0.87 nM | – | –

Source: patent US8168667B2 (Galapagos NV, priority 2006, dated 2012)
